Test results: patent US11603355B2, “Charged ion channel blockers and methods for use” (Nocion Therapeutics, Inc., priority 2019, dated 2023)
Counter-ions that a name gives are not always drawn.

Key:
[1] = target: T1, NaV1.7 (Homo sapiens, UniProt Q15858); test: Manual patch clamp, internal block of NaV1.7 current; type: cell-based; conditions: % inhibition at 3 μM test concentration, compound in internal solution, HEK293 cells; for inhibition at 3 µM: read-out: Nav1.7 Intracellular Inhibition
T1 construct: expressed in transfected cells; host or cells: HEK293 (tetracycline-inducible)
Procedure, shortened: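 Whole-cell recordings at room temperature in tetracycline-induced HEK293 cells, compound in CsCl internal solution (pH 7.2), held at −100 mV with 10 ms steps to −20 mV. Four 30 s 5 Hz trains after 5 min baseline; fraction of peak inward current remaining computed as Itest/Ibaseline.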

[2] = target: T1, NaV1.7; test: Manual patch clamp, external block of NaV1.7 current; type: cell-based; conditions: % inhibition at 10 μM test concentration, compound in external solution, HEK293 cells; for inhibition at 10 µM: read-out: Nav1.7 Extracellular Inhibition
Protocol: Representative compounds of the invention were synthesized according to the described methods and tested for the ability to inhibit voltage-gated sodium channels.
NaV1.7 was expressed in HEK293 cells upon induction with tetracycline. Cells were cultured in DMEM containing 10% dialyzed Fetal Bovine Serum (VWR, Radnor, Pa.), 1% Glutamax (VWR, Radnor, Pa.), 1% Penicillin-Streptomycin (VWR, Radnor, Pa.), 100 mg/L Hygromycin (Thermo Fisher Scientific, Waltham, Mass. and 5 mg/L Blasticidin (Alfa Aesar, Haverhill, Mass.). Cells were grown and maintained at 37° C. in a humidified environment containing 10% CO2 in air. Cells were detached from the culture flask for passage and harvested using 0.05% Trypsin-EDTA (Thermo Fisher Scientific, Waltham, Mass.). To induce NaV1.7, cells were induced with tetracycline (0.1-1 μg/mL, IBI Scientific, Peosta, Iowa) the day before recording and plated onto 24-well plates. Cells were washed with DPBS (VWR, Radnor, Pa.), trypsinized and then triturated five times in 10 mL of growth media to break apart cell aggregates. For one 24-well plate, 2 mL of cell suspension was mixed with 23 mL of fresh growth media and 0.1-1 μg/mL tetracycline added. 1 ml of mixed media with cells was then added to each well of a 24-well plate, with a 12 mm coverslip already placed in the bottom of the well. Cells were then incubated in 37° C. and 10% CO2 overnight.
The intracellular solution contained the following (in mM) CsCl 135, NaCl 10, EGTA 10, HEPES 10, MgCl2 2, adjusted to pH 7.2 with CsOH. The external solution was a normal Ringer solution containing (in mM) NaCl 155, HEPES 10, glucose 10, KCl 3.5, CaCl2 1.5, MgCl2 1 adjusted to pH 7.4 with NaOH. CsCl is from Alfa Aesar, Haverhill, Mass. All other chemicals are from Sigma-Aldrich, St. Louis, Mo. In order to test the degree of internal block by test compounds the compounds were dissolved in internal solution at the indicated test concentration. […] In order to test the degree of external block by test compounds the compounds were dissolved in external solution at the indicated test concentration.
18-24 hours after cells were induced with tetracycline, coverslips were placed into a chamber filled with Normal Ringer solution at room temperature and the chamber placed on a microscope. Pipettes were pulled from borosilicate glass on a P97 puller (Sutter Instrument, Novato, Calif.) and polished with a MF-830 Microforge (Narishige International USA, Inc., Amityville, N.Y.) to have a resistance of 1.5-2.5 MΩ when filled with CsCl internal solution at room temperature. Healthy cells (those that are round and translucent with no visible blemishes) were chosen for seal formation. A seal was formed between the pipette and the cell, and a brief pulse of suction was used to “break in” and establish the whole-cell configuration. The membrane potential was held at −100 mV before the voltage protocol began. Only cells with series resistance between 1.5-5 MΩ were retained for analysis. The voltage protocol was as follows: Cells were held at −100 mV for 12 ms followed by a hyperpolarizing step to −105 mV for 12 ms to monitor the leak. Cells were then stepped back to −100 mV for 40 ms. Cells were then depolarized to −20 mV for 10 ms and then returned to −100 mV for 26 ms.
Once the recording was started, the voltage protocol was run at 30 second intervals for 5 minutes to get a stable baseline. This is followed by 5 Hz stimulation of the same voltage protocol run until the end of experiment. […] The test compound is added for 5 minutes before washing out with normal Ringer's solution. Currents were recorded using PatchMaster software with Heka EPC10 (HEKA Electronics, Lambrecht, Germany). Only cells with inward current amplitudes at −20 mV between 400 pA and 4 nA were accepted. In addition, cells having leak currents greater than 10% of their current amplitudes were discarded. […]

T1 sequence (Q15858 whole entry): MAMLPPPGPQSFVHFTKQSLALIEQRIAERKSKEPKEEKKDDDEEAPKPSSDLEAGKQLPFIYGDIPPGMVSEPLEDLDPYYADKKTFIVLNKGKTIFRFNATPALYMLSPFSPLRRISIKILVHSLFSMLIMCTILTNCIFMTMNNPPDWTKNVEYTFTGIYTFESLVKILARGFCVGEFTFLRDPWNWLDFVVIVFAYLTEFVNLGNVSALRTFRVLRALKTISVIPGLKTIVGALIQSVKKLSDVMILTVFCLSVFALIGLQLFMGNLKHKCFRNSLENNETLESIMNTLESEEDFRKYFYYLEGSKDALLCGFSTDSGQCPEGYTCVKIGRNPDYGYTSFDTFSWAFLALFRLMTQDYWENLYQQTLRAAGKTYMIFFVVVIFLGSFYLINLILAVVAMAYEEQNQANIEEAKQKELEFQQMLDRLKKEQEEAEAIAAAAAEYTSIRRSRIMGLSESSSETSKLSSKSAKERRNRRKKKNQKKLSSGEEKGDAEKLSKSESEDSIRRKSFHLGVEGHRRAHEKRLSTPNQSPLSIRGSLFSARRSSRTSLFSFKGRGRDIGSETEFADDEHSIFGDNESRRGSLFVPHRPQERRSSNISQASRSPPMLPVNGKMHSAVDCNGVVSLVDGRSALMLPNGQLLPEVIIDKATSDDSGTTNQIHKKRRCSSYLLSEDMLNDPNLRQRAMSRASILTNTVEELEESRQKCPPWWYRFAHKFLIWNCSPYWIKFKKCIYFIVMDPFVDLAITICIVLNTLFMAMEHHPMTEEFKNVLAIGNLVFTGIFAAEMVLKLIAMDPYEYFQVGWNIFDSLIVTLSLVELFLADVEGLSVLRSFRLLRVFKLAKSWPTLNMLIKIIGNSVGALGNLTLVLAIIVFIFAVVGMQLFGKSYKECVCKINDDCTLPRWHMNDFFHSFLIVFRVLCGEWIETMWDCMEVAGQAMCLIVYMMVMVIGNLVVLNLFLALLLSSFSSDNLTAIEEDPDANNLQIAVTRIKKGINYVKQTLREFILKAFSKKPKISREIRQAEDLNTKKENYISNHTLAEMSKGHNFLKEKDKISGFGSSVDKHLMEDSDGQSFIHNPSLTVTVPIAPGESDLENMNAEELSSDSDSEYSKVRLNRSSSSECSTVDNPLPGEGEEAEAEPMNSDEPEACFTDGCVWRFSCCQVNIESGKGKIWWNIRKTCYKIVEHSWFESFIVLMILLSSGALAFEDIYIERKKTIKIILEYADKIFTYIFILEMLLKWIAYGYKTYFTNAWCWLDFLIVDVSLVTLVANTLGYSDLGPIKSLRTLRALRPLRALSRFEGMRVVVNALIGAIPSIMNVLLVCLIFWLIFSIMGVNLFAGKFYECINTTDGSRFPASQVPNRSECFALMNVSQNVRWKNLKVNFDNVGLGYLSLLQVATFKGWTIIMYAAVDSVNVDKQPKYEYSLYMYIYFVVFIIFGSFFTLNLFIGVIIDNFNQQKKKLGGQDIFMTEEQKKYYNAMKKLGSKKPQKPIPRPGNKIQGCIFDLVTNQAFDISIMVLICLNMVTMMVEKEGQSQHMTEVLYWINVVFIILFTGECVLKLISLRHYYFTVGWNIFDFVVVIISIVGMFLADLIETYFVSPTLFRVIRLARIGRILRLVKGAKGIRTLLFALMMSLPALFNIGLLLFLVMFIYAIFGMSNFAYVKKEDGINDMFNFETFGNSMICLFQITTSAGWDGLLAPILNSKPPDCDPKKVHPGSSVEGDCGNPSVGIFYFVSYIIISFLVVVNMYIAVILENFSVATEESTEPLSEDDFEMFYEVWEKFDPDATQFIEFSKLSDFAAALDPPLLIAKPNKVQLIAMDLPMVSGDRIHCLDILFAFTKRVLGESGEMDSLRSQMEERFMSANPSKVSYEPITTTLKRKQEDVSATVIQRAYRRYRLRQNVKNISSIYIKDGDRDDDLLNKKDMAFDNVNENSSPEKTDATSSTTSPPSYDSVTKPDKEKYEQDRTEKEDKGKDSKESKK

Compound	inhibition at 3 µM [1]	inhibition at 10 µM [2]	Nav1.7 Intracellular Inhibition [1]	Nav1.7 Extracellular Inhibition [2]
Cc1cccc(C)c1N1CCC([N+]2(Cc3ccccc3)CCCCCCC2)C1=O.[Br-] (stereo not shown) [Compound 90A]	> 90%	< 40%		
CCC(=O)Oc1cccc(C)c1NC(=O)C[N+]1(Cc2ccccc2)CCCCCC1.[Br-] [Compound 80A, 1-benzyl-1-(2-((2-methyl-6-(propionyloxy)phenyl)amino)-2-oxoethyl) azepan-1-ium bromide]	> 90%	< 40%		
Cc1cccc(F)c1NC(=O)C[N+]1(Cc2ccccc2)CCCCCC1.[Br-] [Compound 69A, 1-benzyl-1-(2-((2-fluoro-6-methylphenyl)amino)-2-oxoethyl)azepan-1-ium bromide]	> 90%	< 40%		
Cc1cccc(C)c1N(C)C(=O)C[N+]1(Cc2ccccc2)CCCCCC1 [Compound 38A, 1-benzyl-1-(2-((2,6-dimethylphenyl) (methyl)amino)-2-oxoethyl) azepan-1-ium formate]	70 to 90%	< 40%		
1-benzyl-1-(2-((2-(dimethylcarbamoyl)-6-methylphenyl) amino)-2-oxoethyl) azepan-1-ium bromide [Compound 81A]			+++ (“+++” 90-70%)	+ (“+” (<40%))
